Values belong to the compound of their own block, whether it stands above or below them.
How the values were obtained:
[1] = biological target: T1, Hdm2 (Homo sapiens, UniProt Q00987); test: Cell-free ubiquitination assay; type: biochemical; conditions: 1 µM Hdm2, 1 µM Ube1, 10 µM UbcH5b, 10 µM peptide, wild type ubiquitin, 2 hours at 30°C
T1 construct: purchased Enzo Life Sciences
Procedure: Samples were run on gels and imaged as described above.
(§1) Figure 5 Variations in E3 ligase activity result in fluxuations in degron-based substrate ubiquitination. (A) To evaluate the impact of different levels of E3 ligase activity, the four top performing degron-based substrates (β-Catenin, Bonger, iNOS, and p53) were incubated in lysates from four different cell lines (HeLa, U937, THP-1, and HL60) in the ubiquitin pull down assay. Further, the assay was supplemented with wild type ubiquitin to examine polyubiquitin chain formation. All reaction mixtures were incubated for 2 hours at 37°C prior to continuation with the pull down assay. (B) The effects of a NEDD8 inhibitor (MLN-4924) and an E1 inhibitor (PYR-41) were examined on the TAZ-based substrate (a target of the SCF^βTrCP E3 ligase). The ubiquitin pull down was performed as previously described with the reactions incubated for 2 hours with the listed inhibitor concentrations at 37°C prior to continuation with the pull down assay. (C) A cell-free ubiquitination assay was performed on the p53-based substrate using an enzymatic cascade culminating with 1 µM Hdm2 and supplemented with wild type ubiquitin. Lane 1 contains all assay components, lane 2–4 were control experiments removing a member of the E1–E3 enzymatic cascade. […]

[2] = test system: TAZ-based substrate ubiquitination (a target of the SCF^βTrCP E3 ligase); test: Ubiquitin pull down of TAZ-based substrate with inhibitors of the E1-E3 cascade; type: biochemical; conditions: 2 hours at 37°C with inhibitor, gel, concentrations only in Figure 5b
Procedure: as §1, with “assay.” for “assay. (C) A cell-free ubiquitination assay was performed on the p53-based substrate using an enzymatic cascade culminating with 1 µM Hdm2 and supplemented with wild type ubiquitin. Lane 1 contains all assay components, lane 2–4 were control experiments removing a member of the E1–E3 enzymatic cascade.”
To perform a more precise analysis of the impact of variations in E3 ligase activity on degron-based substrate ubiquitination and to identify any issues with peptide specificity, the second route of experimentation was the application of known inhibitors of the E1–E3 enzymatic cascade. […] To examine the effects of partially inhibiting SCF^βTrCP, TAZ-based substrate ubiquitination was assessed in the presence and absence of this inhibitor (Figure 5b).

[3] = test system: HeLa S100 cytosolic lysates as the source of E1, E2, and E3 enzymes; test: Ubiquitin pull down assay with methylated ubiquitin, multi-monoubiquitination kinetic model; type: biochemical; conditions: ratio of fitted rate constants, >1 favours ubiquitination, <1 degradation
Source text: A second model based on substrate multi-monoubiquitination was developed and evaluated. This model assumed that the generation of di-, tri-, and tetra-ubiquitinated species was the result of multiple methylated ubiquitins being conjugated to the multiple available lysines found on the degron-based substrate (Figure 3a). As opposed to the polyubiquitination model, the multi-monoubiquitination model accurately fit the data for all eight degron-based substrates (Figure 3b–d, Figure S4 in File S1, Table 2). Using this model, kinetic rate constants for all ubiquitination (k1 for mono-, k2 for di-, k3 for tri-, and k4 for tetra-) and peptidase-dependent degradation steps (Table 2) were calculated. The multi-monoubiquitination model nicely corresponded to the observed results in Figure 2. […] The model also captured the preference for di-ubiquitination of the Cyclin D1 degron (k2 is two-fold greater than k1) and the equal preference of mono- and di-ubiquitination states found in the HIF-1α degron (k1 of 2.6 and k2 of 3.0). Further, the similar behavior and observed kinetics for IFNAR and TAZ degrons were mostly likely due to the fact that these degrons are recognized by the same E3 ligase, SCF^βTrCP (Table 1). To test the robustness of the multi-monoubiquitination model, a ninth substrate based on the degron from the protein β-Catenin was assessed. This substrate was selected because it is ubiquitinated by the same E3 ligase as TAZ and IFNAR1, SCF^βTrCP. The model accurately fit the data for the multi-monoubiquitination of the β-Catenin degron-based substrate with similar rate constants compared to the TAZ and IFNAR1-based substrates (Table 2). Finally, it was important to assess the validity of the model by addressing the relative goodness of fit between the experimental data and the model predictions as determined from the multi-monoubiquitination model. For this particular analysis it was decided to calculate the sample Pearson correlation coefficient (Eq. S10 in File S1), a widely used metric to measure the dependence between two variables. A correlation coefficient was calculated between the model predictions and experimental data for mono-, di-, tri-, and tetra-ubiquitinated substrate for all nine degron-based substrates (Table S1 in File S1). As per convention, a positive value approaching 1 corresponds to a very good fit, which is observed for all nine substrates indicating a good fit between model and data.

[4] = test system: SCF^βTrCP; conditions: published substrate; optimized test tube reaction with excess E1, E2, and E3 ligases, no competing peptidases; cited from earlier work
Source text: While there exist kinetic studies of specific E3 ligases, [47], [48] and individual degrons there has not been a comprehensive analysis of ubiquitination kinetics of multiple degrons in a single study. The presented work allowed for the calculation of rate constants for multiple degrons in a single cell line, effectively comparing the ubiquitination kinetics of different E3 ligase targets.

[5] = test system: endogenous proteases and peptidases found in the S100 lysates

T1 sequence (Q00987 whole entry): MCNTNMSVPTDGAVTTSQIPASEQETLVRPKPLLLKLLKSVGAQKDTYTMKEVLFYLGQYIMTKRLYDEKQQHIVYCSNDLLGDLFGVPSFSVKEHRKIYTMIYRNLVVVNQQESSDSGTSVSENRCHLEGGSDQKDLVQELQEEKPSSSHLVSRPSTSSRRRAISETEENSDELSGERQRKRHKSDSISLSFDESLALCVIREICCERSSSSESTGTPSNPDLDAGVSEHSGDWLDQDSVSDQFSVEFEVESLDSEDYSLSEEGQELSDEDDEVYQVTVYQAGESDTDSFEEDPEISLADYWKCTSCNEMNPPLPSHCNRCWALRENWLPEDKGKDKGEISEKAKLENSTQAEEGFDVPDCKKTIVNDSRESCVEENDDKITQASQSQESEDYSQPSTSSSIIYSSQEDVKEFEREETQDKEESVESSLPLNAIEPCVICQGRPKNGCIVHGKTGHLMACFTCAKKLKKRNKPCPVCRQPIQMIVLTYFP

Compound: CN(C)CCCNc1c2c(=O)n(C)c(=O)nc-2n(C)c2ccccc12 [HLI-373]
effect of inhibitor on Hdm2-dependent ubiquitination of the p53-based substrate ([1]; inhibitor 1, 10 µM): No decrease

Compound: Cc1ccc2ccc(C(Nc3ccccc3)c3ccccc3)c(O)c2n1 (stereo not shown) [NSC-66811]
effect of inhibitor on Hdm2-dependent ubiquitination of the p53-based substrate ([1]; inhibitor 1 µM dose): pronounced decrease

Second part, led by results:

effect of inhibitor on ubiquitination of the TAZ-based substrate [2]: slightly impaired
Compound: NS(=O)(=O)OC[C@@H]1C[C@@H](n2ccc3c(N[C@H]4CCc5ccccc54)ncnc32)C[C@@H]1O [MLN-4924]

effect of inhibitor on ubiquitination of the TAZ-based substrate [2]: reduced ubiquitination
Compound: CCOC(=O)c1ccc(N2NC(=O)/C(=C/c3ccc([N+](=O)[O-])o3)C2=O)cc1 [PYR-41]

k1/k5, mono-ubiquitination vs. degradation of unmodified substrate [3]: 1.55
k6, rate constant for peptidase-dependent degradation of mono-ubiquitinated substrate [5]: 0.1 (1/min)*10^3
k7, rate constant for peptidase-dependent degradation of di-ubiquitinated substrate [5]: 0.1 (1/min)*10^3
k8, rate constant for peptidase-dependent degradation of tri-ubiquitinated substrate [5]: 1.0 (1/min)*10^3
k9, rate constant for peptidase-dependent degradation of tetra-ubiquitinated substrate [5]: 3.0 (1/min)*10^3
Compound: KAWQQQSYLDSGIHSGATTTAPK(FAM)KKK [β-Catenin]
rate constant for β-Catenin ubiquitination previously reported [4]: 0.28 min⁻¹

— article PMC3812159, “A Comparative Analysis of the Ubiquitination Kinetics of Multiple Degrons to Identify an Ideal Targeting Sequence for a Proteasome Reporter” (PLoS ONE, 2013)
